From patent publication US5580552A, “7-glycosyloxybenzopyran derivative and antiallergic agent containing the derivative as active ingredient” (priority 1994, dated 1996)

Columns and labels:
[1] = system: homologous passive cutaneous anaphylaxis (PCA) reaction; experiment: Effect on homologous passive cutaneous anaphylaxis (PCA) reaction in rats; assay type: in vivo, rats (male wistar); conditions: 50 mg/kg oral, 1 hour before challenge (TABLE 2); for inhibition in vivo at 50 mg/kg: Rattus norvegicus, po, 0.5 h
Protocol: Effect on homologous passive cutaneous anaphylaxis (PCA) reaction in rats.
This experimental animal model is caused by immediate type allergic reaction namely, antigen-antibody reaction. In the following, the method of this pharmacological test will be explained.
Method: Male wistar rats (9 weeks old) were intradermally administered 0.05 ml of anti-serum against dinitrophenylated ascaris (DNP-As) into two sites on the shaved dorsal skin. 48 hours later, 7-glycosyloxybenzopyran derivatives (test compounds) suspended in 0.5% sodium carboxymethylcellulose (CMCNa) were given orally at a dose of 50 mg/kg to the animals. One hour after administration of Test compounds, the animals were induced anaphylaxis by injection of saline (1 ml) dissolving 5 mg of Evans Blue and 1 mg of Trinitrophenylated ascaris (TNP-As) into the tail vein of the animals. 30 minutes after induction of anaphylaxis, animals were anesthetized by ether and killed by bleeding, and were flayed dorsal skin. The determination of extravasated dye was performed according to the method of Katayama et al. (Microbiol. Immunol., Vol.22, P 89-101, 1978). As vehicle control group, only 0.5% CMCNa solution was administered orally, and as positive control group, Tranilast suspended in 0.5% CMCNa was administered orally at a dose of 100 mg/kg to the animals with the same method as the test compounds groups. Each experimental group consisted of 5 rats. [formula]

[2] = system: contact dermatitis induced by picryl chloride; experiment: Effect on contact dermatitis induced by picryl chloride in mice; assay type: in vivo; conditions: 50 mg/kg oral, 1 hour before and 16 hours after challenge, 24 hours after challenge; for inhibition in vivo at 50 mg/kg: Mus musculus, po, 24 h, read-out: Inhibition (%) against the increase of ear thickness
Protocol: Effect on contact dermatitis induced by picryl chloride in mice
The delayed type hypersensitization is inhibited by steroid drugs,but can not be effected by known anti-allergic agents. In the following, the method of the pharmacological test will be explained.
Method: Mice, shaved their abdominal skin on previous day, were immunized by applying 0.1 ml of acetone containing 7 mg of picryl chloride to the skin of the abdomen. 7 days after immunization, the thickness of the ear was measured with a dial thickness gauge, then mice were challenged by painting 5 μl of 1% picryl chloride olive oil solution to each side skin of left ear. 24 hours after challenge, the thickness of the left ear was measured again and the increase (%) of thickness was calculated according to equation 2. The compounds of the present invention (test compounds) suspended in 0.5% CMCNa were forcibly administered orally at a dose of 50 mg/kg at 1 hour before and 16 hours after challenge. As vehicle control group, only 0.5% CMCNa solution were administered orally, and as positive control group, Prednisolone, steroid hormone, and Tranilast were administered orally at the doses of 10 mg/kg and 100 mg/kg, respectively.
Increase (%)=(A-B)/B×100 (Equation 2)
A: thickness of the ear at 24 hours after challenge
B: thickness of the ear before challenge
Inhibition (%)=(C-D)/C×100 (equation 3)
C: The increase (%) in vehicle control group
D: The increase (%) in test compounds group or positive control group

[3] = system: experimental asthma model (airway resistance); experiment: Effect on experimental asthma model in guinea pigs (airway resistance); assay type: in vivo, guinea pigs (male hartley); conditions: 50 mg/kg oral (TABLE 6); for inhibition in vivo at 50 mg/kg: Cavia porcellus, po, 0.5 h
Protocol: Effect on experimental asthma model in guinea pigs
The asthma is typical allergic disease and we carried out this pharmacological test by well known experimental asthma model in guinea pigs in order to comfirm that the compounds of the present invention suppress the asthma. In the following, the method of the pharmacological test will be explained.
Method: Male hartley guinea pigs were immunized by intraperitoneal injection of saline (1ml) containing 5 mg of ovalbumine (OVA) three times at interval of one week. 2 weeks after final immunization, the animals were challenged by inhalation of 1% OVA-saline solution for 1 minute and then the airway resistance of the animals were measured for 30 minutes with PULMOS-1 (Medical Interface Project Station Inc.) after the inhalation. The compounds of the present invention (test compounds) suspended in 0.5% CMCNa were given orally at a dose of 50 mg/kg. As positive control group, Disodium Cromoglicate (DSCG), well known anti-allergic agent, in saline were injected at a dose of 20 mg/kg into the vein of the animals. As vehicle control group, only 0.5% CMCNa solution were given orally. The inhibition (%) of the airway resistance in vehicle control group was calculated according to equation 5 and the result was shown in TABLE 6. Each experimental group consisted of 5 guinea pigs. [formula]
A: Maximum airway resistance in vehicle control group
B: Maximum airway resistance in test compounds group or positive control group

| SMILES | inhibition in vivo at 50 mg/kg [1] | inhibition in vivo at 50 mg/kg [2] | inhibition in vivo at 50 mg/kg [3] | Inhibition (%) of PCA reaction [1] | Inhibition (%) against the increase of ear thickness [2] | Inhibition (%) of the airway resistance [3] |
| --- | --- | --- | --- | --- | --- | --- |
| CCC=CCCOc1c(O)c2ccc(O[C@H]3O[C@H](CO)[C@@H](O)[C@H](O)[C@@H]3O)cc2oc1=O [compound 70] | 51.3% | 52.1% | 65.6% | – | – | – |
| CCCCCCOc1c(O)c2ccc(O[C@@H]3O[C@H](CO)[C@H](O)[C@H](O)[C@H]3O)cc2oc1=O [compound 87] | 60.3% | 64.9% | 79.5% | – | – | – |
| CCCCCCCCOc1c(O)c2ccc(O[C@@H]3O[C@H](CO)[C@H](O)[C@H](O)[C@H]3O)cc2oc1=O [compound 88] | 61.5% | 66.8% | 80.2% | – | – | – |
| CC(=O)Oc1c(OC(C)C)c2ccc(O[C@@H]3O[C@H](COCc4ccccc4)[C@@H](OCc4ccccc4)[C@H](OCc4ccccc4)[C@H]3OCc3ccccc3)cc2oc1=O [compound 145] | 40.2% | 42.1% | 41.9% | – | – | – |
| CCCCCCCCCCOc1c(O)c2ccc(O[C@@H]3O[C@H](CO)[C@H](O)[C@H](O)[C@H]3O)cc2oc1=O [compound 89] | 57.8% | 62.3% | 77.3% | – | – | – |
| COc1c(O)c2ccc(O[C@H]3O[C@H](CO)[C@@H](O)[C@H](O)[C@@H]3O)cc2oc1=O [compound 8, 3-methoxy-4-hydroxy-7-(α-D-mannopyranosyloxy)-2H-1-benzopyran-2-one] | 49.2% | 50.3% | 59.2% | – | – | – |
| O=c1oc2cc(O[C@H]3O[C@H](CO)[C@@H](O)[C@H](O)[C@@H]3O)ccc2c(O)c1O [compound 61] | 40.2% | 43.1% | 45.2% | – | – | – |
| O=c1oc2cc(O[C@@H]3O[C@H](CO)[C@@H](O)[C@H](O)[C@H]3O)ccc2c(OCc2ccccc2)c1O [compound 118] | – | – | – | 41.2% | 43.5% | 45.3% |
| COc1c(O)c(=O)oc2cc(O[C@H]3O[C@H](CO)[C@@H](O)[C@H](O)[C@@H]3O)ccc12 [compound 131] | 41.2% | 40.9% | 42.5% | – | – | – |
| O=c1oc2cc(O[C@@H]3O[C@H](CO)[C@@H](O)[C@H](O)[C@H]3O)ccc2c(O)c1O [compound 108] | 45.3% | 42.4% | 50.1% | – | – | – |
| C=COc1c(O)c(=O)oc2cc(O[C@H]3O[C@H](CO)[C@@H](O)[C@H](O)[C@@H]3O)ccc12 [compound 137] | 41.7% | 43.5% | 45.4% | – | – | – |
| CCCCCCOc1c(OCc2ccccc2)c2ccc(O[C@@H]3O[C@H](COC(C)=O)[C@H](OC(C)=O)[C@H](OC(C)=O)[C@H]3OC(C)=O)cc2oc1=O [compound 75] | 45.5% | 40.3% | 43.5% | – | – | – |
| CCCCCCCCOc1c(O)c(=O)oc2cc(O[C@H]3O[C@H](CO)[C@@H](O)[C@H](O)[C@@H]3O)ccc12 [compound 132] | 42.9% | 43.2% | 50.1% | – | – | – |
| CCCCCCOc1c(O)c2ccc(O[C@H]3O[C@H](CO)[C@@H](O)[C@H](O)[C@@H]3O)cc2oc1=O [compound 63] | 55.7% | 53.1% | 53.2% | – | – | – |
| CCCCCCCCCCCCOc1c(O)c(=O)oc2cc(O[C@H]3O[C@H](CO)[C@@H](O)[C@H](O)[C@@H]3O)ccc12 [compound 134] | 41.5% | 43.7% | 45.9% | – | – | – |
| CCCCCCCCCCCCOc1c(O)c2ccc(O[C@@H]3O[C@H](CO)[C@@H](O)[C@H](O)[C@H]3O)cc2oc1=O [compound 41] | 55.4% | 60.1% | 70.2% | – | – | – |
| CCCCCCCCOc1c(O)c2ccc(O[C@@H]3O[C@H](CO)[C@@H](O)[C@H](O)[C@H]3O)cc2oc1=O [compound 39] | 62.2% | 65.1% | 77.8% | – | – | – |
| CC1CCC(Oc2c(O)c3ccc(O[C@@H]4O[C@H](CO)[C@@H](O)[C@H](O)[C@H]4O)cc3oc2=O)CC1 (stereo partly drawn) [compound 43] | 57.9% | 55.4% | 70.7% | – | – | – |
| C=COc1c(O)c2ccc(O[C@H]3O[C@H](CO)[C@@H](O)[C@H](O)[C@@H]3O)cc2oc1=O [compound 69] | 48.1% | 49.9% | 59.3% | – | – | – |
| C=COc1c(O)c2ccc(O[C@@H]3O[C@H](CO)[C@@H](O)[C@H](O)[C@H]3O)cc2oc1=O [compound 44] | 54.5% | 56.3% | 65.1% | – | – | – |
| CCCCOc1c(O)c(=O)oc2cc(O[C@@H]3O[C@H](CO)[C@@H](O)[C@H](O)[C@H]3O)ccc12 [compound 110] | 41.4% | 42.9% | 56.5% | – | – | – |
| CC(C)Oc1c(O)c2ccc(O[C@H]3O[C@H](CO)[C@@H](O)[C@H](O)[C@@H]3O)cc2oc1=O [compound 67] | 50.4% | 53.2% | 60.2% | – | – | – |
| CC(C)=CCC/C(C)=C/COc1c(O)c(=O)oc2cc(O[C@H]3O[C@H](CO)[C@@H](O)[C@H](O)[C@@H]3O)ccc12 [compound 139] | 41.8% | 42.1% | 47.2% | – | – | – |
| CCCCCCCCOc1c(O)c(=O)oc2cc(O[C@@H]3O[C@H](CO)[C@@H](O)[C@H](O)[C@H]3O)ccc12 [compound 22, 3-hydroxy-4-octyloxy-7-(β-D-glucopyranosyloxy)-2H-1-benzopyran-2-one] | 43.6% | 47.3% | 60.6% | – | – | – |
| CCCCCCCCCCOc1c(O)c(=O)oc2cc(O[C@H]3O[C@H](CO)[C@@H](O)[C@H](O)[C@@H]3O)ccc12 [compound 133] | 42.3% | 41.4% | 43.2% | – | – | – |
| CC(C)=CCC/C(C)=C/COc1c(O)c(=O)oc2cc(O[C@@H]3O[C@H](CO)[C@@H](O)[C@H](O)[C@H]3O)ccc12 [compound 117] | 40.3% | 42.3% | 49.4% | – | – | – |
| CC(C)=CCC/C(C)=C/COc1c(O)c(=O)oc2cc(O[C@@H]3O[C@H](CO)[C@@H](O)[C@H](O)[C@H]3O)ccc12 [compound 160] | – | – | – | 43.9% | 46.7% | 58.9% |
| CCCCCCCCOc1c(OCc2ccccc2)c2ccc(O[C@@H]3O[C@H](COCc4ccccc4)[C@@H](OCc4ccccc4)[C@H](OCc4ccccc4)[C@H]3OCc3ccccc3)cc2oc1=O [compound 35] | 42.2% | 40.5% | 38.2% | – | – | – |
